# Data as given in the NIST ThermoML archive (doi:10.1016/j.tca.2010.01.023).
# Numbers after ± are expanded uncertainties.
# Settings: Crystal; DTA
smiles,measurement,value
CCCCn1cc[n+](C)c1.[Cl-] [1-butyl-3-methylimidazolium chloride],Normal melting temperature,65.0 ± 1 °C
